The structures appear in SMILES notation. Read-outs that look alike come from different tables or passages of the source.

Broadly, the Km is the concentration of substrate that gives half-maximal velocity.

Series [1] is described as follows: Blood levels and metabolic ratios of tamoxifen and its metabolites after two tamoxifen injections, with saline or morphine (LC-MS/MS). As to conditions: for Change of blood concentration, second vs first tamoxifen injection: saline co-injections. As for the experimental part: Experiments were performed with 11- to 29-week-old female C57BL/6J mice (23 ± 4 g; Charles River, L'Arbresle, France). Animals were housed according to a 12-h light–dark cycle, at a temperature of 22°C ± 2°C and provided with food and water ad libitum. All procedures were performed in accordance with European directives (2010/63/EU) and were approved by the regional ethics committee and the French Ministry of Agriculture (license no. APAFIS#16827-2018092113192911 v4 to YG).
Statistical analysis was performed using GraphPad Prism 6 Software. […] Groups were compared using multiple t-tests.

Series [2] in a line: 4OH-tamoxifen glucuronidation assay in liver microsomes, with or without morphine. In kind it is in vitro ADME. Particulars: male, C57/BL6J, mouse. A general note: Microsomes from liver hold many membrane-bound enzymes, among them those of drug oxidation.
For series [3] the following is noted: read-out: Km for morphine glucuronidation; mice; cited from earlier work.
For series [4] the following is noted: mice; cited from earlier work.
For series [5] the following is noted: humans; cited from earlier work.
Where [6] appears, read: tamoxifen 10 mg/kg i.p. at 0 and 48 h.
Where [7] appears, read: three i.p. injections of morphine 10 mg/kg at 0, 1 and 2 h.

For `CC/C(=C(\c1ccc(OCCN(C)C)cc1)c1ccc(O[C@H]2O[C@@H](C(=O)O)[C@H](O)[C@@H](O)[C@@H]2O)cc1)c1ccccc1` [4OH-tamoxifen-glucuronide], the “Change of blood concentration, second vs first tamoxifen injection” value (“Change of blood concentration, second” below) in series [1] (setting [6]) is reported as “significant increase”.

`CC/C(=C(\c1ccc(O)cc1)c1ccc(OCCN(C)C)cc1)c1ccccc1` [4OH-tamoxifen]: the Km at 20 s in series [2] is 68 µM.

For `CN1CC[C@]23c4c5ccc(O[C@@H]6O[C@H](C(=O)O)[C@@H](O)[C@H](O)[C@H]6O)c4O[C@H]2[C@@H](O)C=C[C@H]3[C@H]1C5` [M3G, morphine-3-glucuronide], the “Time at which the highest blood concentration was reached” value under setting [7] was found to be 2 h. For the same compound, where the note is “three i.p. injections of morphine 10 mg/kg at 0, 1 and 2 h, mean ± SEM”, the “Highest concentration in the blood” value is 9,773 ± 1,274 pmol/ml.

Regarding `CC/C(=C(\c1ccccc1)c1ccc(OCCNC)cc1)c1ccccc1` [N-desmethyltamoxifen], the “Change of blood concentration, second” value in series [1] (setting [6]) is reported as “significant increase”. Besides, the “Change of blood concentration after tamoxifen + morphine vs first injection of tamoxifen alone” value in series [1] (tamoxifen 10 mg/kg i.p. at 0 and 48 h, morphine 10 mg/kg i.p. at 48, 49 and 50 h) is given as “Only a tendency”. In addition, the “N-desmethyltamoxifen/tamoxifen ratio after morphine” value in series [1] (tamoxifen + morphine 3 x 10 mg/kg i.p.) is “not altered”. In series [1] (tamoxifen twice, saline), the “N-desmethyltamoxifen/tamoxifen ratio, second vs first tamoxifen injection” value is listed as “no difference”.

Take `CC/C(=C(/c1ccc(OCCNC)cc1)c1ccc(O[C@@H]2O[C@H](C(=O)O)[C@@H](O)[C@H](O)[C@H]2O)cc1)c1ccccc1` [endoxifen-glucuronide]: in series [1] (setting [6]), the “Change of blood concentration, second” value is listed as “did not vary significantly”. In addition, in series [1] (tamoxifen 10 mg/kg i.p. twice, saline, t = 2 h), the “Increase of endoxifen-glucuronide/endoxifen ratio, second vs first tamoxifen injection” value stood at 3 fold.

As for `CN1CC[C@]23c4c5ccc(O)c4O[C@H]2[C@@H](O)C=C[C@H]3[C@H]1C5` [morphine, reference compound], for the setting “three i.p. injections of morphine 10 mg/kg”, the “Presence in blood after 8 h” value is given as “still present”. Also, the “Time at which the highest blood concentration was reached” value under setting [7] came out at 2 h. Further, the Km in series [3] is 500 µM.

In the case of `CC/C(=C(\c1ccccc1)c1ccc(OCCN(C)C)cc1)c1ccccc1` [tamoxifen], the Half-life was 6.8 h in series [4] and 27 h in series [5].

The values above are taken from PMC7046683 (Frontiers in Oncology, 2020).
